One test has as its system Hepatoma AH 130. Kind of test: in vivo. The arrangement: species or system SPF Wistar rats. The conditions noted are these: additional compounds, result in words. Put shortly:
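Therapeutic index (LD50/ED50) was derived from tumour weight against controls at day-8 sacrifice, with ED50 the dose giving 50% tumour reduction. Rats (SPF Wistar) bore 5 × 10^6 hepatoma cells implanted intraperitoneally. A single i.p. injection followed on the day after implantation.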

Test [1] relates to Ehrlich ascites tumour, ELD hyperdiploid (46 chromosomes). Kind of test: Ehrlich ascites tumour test (LD50, ED50, therapeutic index). The class given is in vivo, SPF NMRI mice. The conditions noted are these: additional compounds, result in words. From the text: The high activity against tumours is further illustrated in these experiments by comparisons with known antitumour agents used in the therapy. The therapeutic indexes (T.I.), i.e. the ratios LD50/ED50, are in all comparisons much more favourable with the compounds of the present invention.
LD50 is the dose that caused a 50 percent lethality of the animals, ED50 is the dose that caused a 50 percent reduction of tumour size.
The experimental design and the interpretation of the results have been in accordance with the standards set by the CCNSC (Cancer Chemotherapy Reports, January 1959 and December 1962), and by the DR&D (Cancer Chemotherapy Reports, September 1972, Vol. 3, No. 2).
The way of administration is by the intraperitoneal route (i.p.) in each case.
Ehrlich ascites tumour, ELD hyperdiploid (46 chromosomes)
Experimental animals: SPF NMRI mice.
Tumour implant: 2 × 10^6 tumour cells i.p.
Therapy: One injection i.p. on the day following implantation.
Termination: The animals are killed on the 8th day.
Evaluation: Weights of tumours of test animals compared with those of control animals.

For the molecule `C[C@]12CC[C@H]3[C@@H](CCC4=CC(=O)CC[C@@]43C)[C@@H]1CC[C@@H]2C(=O)COC(=O)N(CCCl)N=O` [deoxycorticosterone-21-N-(2-chloroethyl)-N-nitroso carbamate], the anti-tumor activity entry (with Hepatoma AH 130; in test [1]) was “exhibit anti-tumor activity” throughout.

With `C[C@]12CCC(=O)C[C@@H]1CC[C@@H]1[C@@H]2CC[C@]2(C)[C@@H](OC(=O)N(C(=O)N(CCCl)N=O)C3CCCCC3)CC[C@@H]12` [dihydrotestosteron-17β-/N^2-cyclohexyl-N^4-(2-chloroethyl)-N^4-nitroso allophanate/], the anti-tumor activity entry (in the test on Hepatoma AH 130; in test [1]) was “exhibit anti-tumor activity” each time.

In the case of `C[C@]12CC[C@@H]3c4ccc(OC(=O)N(CCCl)N=O)cc4CC[C@H]3[C@@H]1CC[C@@H]2OC(=O)N(CCCl)N=O` [estradiol-3,17β-bis/N-(2-chloroethyl)-N-nitroso carbamate/], the anti-tumor activity result (in the test with Hepatoma AH 130; in test [1]) was “exhibit anti-tumor activity” each time.

Take `CCCOc1ccc(CCC(=O)O[C@H]2CC[C@H]3[C@@H]4CCc5cc(OC(=O)N(CCCl)N=O)ccc5[C@H]4CC[C@]23C)cc1` [estradiol-3-N-(2-chloroethyl)-N-nitroso carbamate-17β-(p-propoxyphenyl-propionate)]: the anti-tumor activity entry (with Hepatoma AH 130; in test [1]) was “exhibit anti-tumor activity” throughout.

`C[C@]12CC[C@@H]3c4ccc(OC(=O)N(CCCl)N=O)cc4CC[C@H]3[C@@H]1CC[C@@H]2OP(=O)(O)O` [estradiol-3-N-(2-chloroethyl)-N-nitroso carbamate-17β-dihydrogen phosphate]: the anti-tumor activity result (in the test on Hepatoma AH 130; in test [1]) was “exhibit anti-tumor activity” each time.

For the molecule `C[C@]12CC[C@@H]3c4ccc(OC(=O)N(CCCl)N=O)cc4CC[C@H]3[C@@H]1CC[C@@H]2OS(=O)(=O)O` [estradiol-3-N-(2-chloroethyl)-N-nitroso carbamate-17β-sodium sulphate], the anti-tumor activity entry (with Hepatoma AH 130; in test [1]) was “exhibit anti-tumor activity” throughout.

`CC(=O)Oc1ccc2c(c1)CC[C@@H]1[C@@H]2CC[C@]2(C)[C@@H](OC(=O)N(C(=O)N(CCCl)N=O)C3CCCCC3)CC[C@@H]12` [estradiol-3-acetate-17β-/N^2-cyclohexyl-N^4-(2-chloroethyl)-N^4-nitroso allophanate/]: the anti-tumor activity entry (in the test on Hepatoma AH 130; in test [1]) was “exhibit anti-tumor activity” each time.

On to `C[C@]12CC[C@@H]3c4ccc(OC5CCCC5)cc4CC[C@H]3[C@@H]1CC[C@@H]2OC(=O)N(CCCl)N=O` [estradiol-17β-N-(2-chloroethyl)-N-nitroso carbamate-3-cyclopentyl ether], for which the anti-tumor activity result (with Hepatoma AH 130; in test [1]) was “exhibit anti-tumor activity” in each case.

For `CC(=O)O[C@H]1CC[C@H]2[C@@H]3CCc4cc(OC(=O)N(CCCl)C(=O)N(CCCl)N=O)ccc4[C@H]3CC[C@]12C` [estradiol-17β-acetate-3-/N^2,N^4-bis (2-chloroethyl)-N-^4-nitroso allophanate/], the anti-tumor activity result (in the test on Hepatoma AH 130; in test [1]) was “exhibit anti-tumor activity” in each case.

As to `CC(=O)Oc1ccc2c(c1)CC[C@@H]1[C@@H]2CC[C@@]2(C)[C@H]1C[C@@H](OC(C)=O)[C@@H]2OC(=O)N(C(=O)N(CCCl)N=O)C1CCCCC1` [estriol-3,16α-diacetate-17β-/N^2-cyclohexyl-N^4-(2-chloroethyl)-N^4-nitroso allophanate/], the anti-tumor activity entry (with Hepatoma AH 130; in test [1]) was “exhibit anti-tumor activity” throughout.

Source of the values: US3963707A, “Novel N-nitroso compounds, compositions containing such compounds, processes for their preparation and methods of treatment therewith, and novel intermediates” (Aktiebolaget Leo, priority 1973, dated 1976).
